Measured values taken from patent US11008323B2, “Substituted tricyclic 1,4-benzodiazepinone derivatives as allosteric modulators of group II metabotropic glutamate receptors” (Domain Therapeutics, priority 2015, dated 2021).

Experiments:
cortical primary neurons = assay: NMDA-induced neurotoxicity assay on cortical primary neurons (MTT test); type: cell-based, mouse; conditions: 24 hours
Method: Primary mouse neurons were incubated with vehicle or NMDA (60 μM)+vehicle or example 207 or LY379268 (mixed mGluR2/3 agonist used as positive control) for 24 hours. Tests were performed in triplicate. Neuron viability was measured using a MTT test.

striatal primary neurons = assay: NMDA-induced neurotoxicity assay on striatal primary neurons (MTT test); type: cell-based, mouse; conditions: 24 hours
Method: Primary mouse neurons were incubated with vehicle or NMDA (60 μM)+vehicle or example 63 or LY379268 (mixed mGluR2/3 agonist used as positive control) for 24 hours. Tests were performed in triplicate. Neuron viability was measured using a MTT test.

human mGluR3 (hmGluR3) = target: T1, human mGluR3 (hmGluR3) (Homo sapiens, UniProt Q14832); assay: Human mGluR3 positive allosteric modulator evaluation using Ca++ functional assay; type: cell-based; conditions: hmGluR3 transiently over-expressed in HEK-293 cells; stimulated by EC50 glutamate concentration; intracellular Ca2+ (Fluo4AM, FLIPR Tetra)
T1 construct: expressed in transfected cells; host or cells: HEK-293 cells, transient co-transfection by electroporation
T1 sequence (Q14832 23-879): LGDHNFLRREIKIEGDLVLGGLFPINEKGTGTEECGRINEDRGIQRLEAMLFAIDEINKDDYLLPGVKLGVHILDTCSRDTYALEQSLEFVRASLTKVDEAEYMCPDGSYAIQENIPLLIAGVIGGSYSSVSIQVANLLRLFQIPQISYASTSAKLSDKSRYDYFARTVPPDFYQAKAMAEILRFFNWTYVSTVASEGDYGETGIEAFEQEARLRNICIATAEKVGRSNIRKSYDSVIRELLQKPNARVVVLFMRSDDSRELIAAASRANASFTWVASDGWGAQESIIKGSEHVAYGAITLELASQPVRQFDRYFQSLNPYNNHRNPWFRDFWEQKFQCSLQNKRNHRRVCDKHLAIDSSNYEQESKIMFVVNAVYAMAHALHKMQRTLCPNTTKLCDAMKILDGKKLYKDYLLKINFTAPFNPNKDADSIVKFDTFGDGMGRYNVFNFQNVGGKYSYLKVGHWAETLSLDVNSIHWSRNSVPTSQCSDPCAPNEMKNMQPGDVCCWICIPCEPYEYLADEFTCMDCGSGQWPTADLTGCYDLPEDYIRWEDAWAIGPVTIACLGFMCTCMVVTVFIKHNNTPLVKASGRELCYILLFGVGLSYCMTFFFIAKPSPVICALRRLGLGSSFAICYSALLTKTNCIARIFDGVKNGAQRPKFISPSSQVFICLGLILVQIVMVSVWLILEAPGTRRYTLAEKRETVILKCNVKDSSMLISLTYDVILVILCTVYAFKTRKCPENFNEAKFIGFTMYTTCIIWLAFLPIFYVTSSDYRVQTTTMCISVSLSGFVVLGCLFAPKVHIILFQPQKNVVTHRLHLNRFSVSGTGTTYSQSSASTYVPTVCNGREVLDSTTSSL
How it was run: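 Calcium flux (Fluo4, ex 485/em 525 nm) recorded first 10 min with compound alone, then 3 min after an EC50 glutamate challenge, giving agonist and PAM EC50 from 20-concentration sigmoidal fits. Receptor was transiently co-transfected in HEK-293 with chimeric G protein and glutamate transporters.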

[1] = alone, in absence of NMDA challenge, 30 nM to 30 μM

## N[C@@]1(C(=O)O)CO[C@H]2[C@H](C(=O)O)[C@H]21 [LY379268]
Cortical primary neurons; at 1 μM, NMDA 60 μM
  NMDA-induced toxicity, cortical primary neurons: decreases NMDA-induced toxicity
Cortical primary neurons; reference alone
  toxicity alone, cortical primary neurons: no toxicity alone
Striatal primary neurons; at 1 μM, NMDA 60 μM
  NMDA-induced toxicity, striatal primary neurons: decreases NMDA-induced toxicity
Striatal primary neurons; reference alone
  toxicity alone, striatal primary neurons: no toxicity alone

## CN[C@H](CC(=O)O)C(=O)O [NMDA, N-methyl-D-aspartate]
Cortical primary neurons; NMDA 60 μM + vehicle
  reduction of the neuron viability, cortical primary neurons: ~50%
Striatal primary neurons; NMDA 60 μM + vehicle
  reduction of the neuron viability, striatal primary neurons: ~70%

## COCc1cc2n(c1)-c1cc(-c3ccc(F)nc3)ccc1C1(CC1)N(C)C2=O [Example 207]
Human mGluR3 (hmGluR3)
  EC50: < 100 nM
Cortical primary neurons; NMDA 60 μM, effect tending to disappear at higher concentrations
  toxicity induced by NMDA (neuroprotection), cortical primary neurons: reduces in a dose-dependent manner the toxicity induced by NMDA up to 1 μM
Cortical primary neurons; [1]
  toxicity on cortical primary neuron viability: no toxicity
other
  melting point: 71 to 80 °C

## CN1C(=O)c2cccn2-c2cc(-c3ccc(F)cn3)ccc2C12CC2 [Example 63, 5-Methyl-9-(5-fluoropyridin-2-yl)-spiro[benzo[f]pyrrolo[1,2-a][1,4]diazepine-6,1′-cyclopropan]-4(5H)-one]
Human mGluR3 (hmGluR3)
  EC50: < 100 nM
Striatal primary neurons; NMDA 60 μM, effect tending to disappear at 30 μM
  toxicity induced by NMDA (neuroprotection), striatal primary neurons: reduces in a dose-dependent manner the toxicity induced by NMDA up to 10 μM
Striatal primary neurons; [1]
  toxicity on striatal primary neuron viability: no toxicity
other
  melting point: 148 to 156 °C

## CN1C(=O)c2cccn2-c2cc(-c3cccc(F)n3)ccc2C12CC2 [Example 67, 5-Methyl-9-(6-fluoropyridin-2-yl)-spiro[benzo[f]pyrrolo[1,2-a][1,4]diazepine-6,1′-cyclopropan]-4(5H)-one]
Human mGluR3 (hmGluR3)
  EC50: 100 to 1000 nM
other
  melting point: 106 to 117 °C

## CN1C(=O)c2cccn2-c2cc(-c3ccc(F)nc3)c(F)cc2C12CC2 [Example 78, 8-Fluoro-5-methyl-9-(6-fluoro-pyridin-3-yl)-spiro[benzo[f]pyrrolo[1,2-a][1,4]diazepine-6,1′-cyclopropan]-4(5H)-one]
Human mGluR3 (hmGluR3)
  EC50: 100 to 1000 nM
other
  melting point: 185 to 192 °C
